Structures can show the parent of a compound that is named as a salt. Where two headings read alike, the source gives them in different places.

We go through six molecules from US20220127568A1, “COMPOSITIONS AND METHODS FOR GENERATING HAIR CELLS BY INHIBITING EPIGENETIC TARGETS” (Frequency Therapeutics, Inc., priority 2019, published 2022).

In data set [1] the test system is KDM1. Conditions: Table 9, first KDM data cell; read-out: Select KDM1; cited from earlier work.
The test system of data set [2] is KDM5. Conditions: Table 9; read-out: Select KDM5; cited from earlier work.
The test system of data set [3] is KDM7. The conditions noted are these: Table 9; read-out: Select KDM7; cited from earlier work.
Data set [4] has as its system Lgr5 GFP+ cochlear progenitor cells. Briefly: Lgr5+ Assay (Stem Cell Proliferation Assay). In kind it is cell-based. Conditions: for Lgr5+ Assay: active concentration range.
In data set [5] the target is GSK-3 alpha (Homo sapiens, UniProt P49840). The conditions noted are these: Table 2; cited from earlier work.
Sequence of GSK-3 alpha (P49840 whole entry): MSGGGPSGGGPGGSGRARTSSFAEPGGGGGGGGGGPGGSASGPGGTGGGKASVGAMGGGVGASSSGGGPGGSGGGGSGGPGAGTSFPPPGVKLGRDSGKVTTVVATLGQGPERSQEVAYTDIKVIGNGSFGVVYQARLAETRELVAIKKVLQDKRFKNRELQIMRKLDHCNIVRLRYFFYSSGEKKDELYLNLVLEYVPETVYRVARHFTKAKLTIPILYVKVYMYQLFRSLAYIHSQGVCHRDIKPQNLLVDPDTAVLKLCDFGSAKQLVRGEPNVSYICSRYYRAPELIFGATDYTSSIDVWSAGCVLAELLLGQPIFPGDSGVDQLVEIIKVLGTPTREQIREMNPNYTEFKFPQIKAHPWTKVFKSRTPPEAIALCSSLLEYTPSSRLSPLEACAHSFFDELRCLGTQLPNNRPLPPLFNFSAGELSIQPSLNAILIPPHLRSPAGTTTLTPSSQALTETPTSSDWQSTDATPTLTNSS
Data set [6] has as its system Lgr5+ cochlear progenitor cells. Put plainly: Quantification of Lgr5+ cochlear progenitor cell proliferation, expansion and enrichment (3D Matrigel culture, Celigo imaging, GFP(+) cell area). It counts as cell-based, mouse.
Data set [7] deals with T1, KDM1b (Homo sapiens, UniProt Q8NB78).
T1 sequence (Q8NB78 1-822): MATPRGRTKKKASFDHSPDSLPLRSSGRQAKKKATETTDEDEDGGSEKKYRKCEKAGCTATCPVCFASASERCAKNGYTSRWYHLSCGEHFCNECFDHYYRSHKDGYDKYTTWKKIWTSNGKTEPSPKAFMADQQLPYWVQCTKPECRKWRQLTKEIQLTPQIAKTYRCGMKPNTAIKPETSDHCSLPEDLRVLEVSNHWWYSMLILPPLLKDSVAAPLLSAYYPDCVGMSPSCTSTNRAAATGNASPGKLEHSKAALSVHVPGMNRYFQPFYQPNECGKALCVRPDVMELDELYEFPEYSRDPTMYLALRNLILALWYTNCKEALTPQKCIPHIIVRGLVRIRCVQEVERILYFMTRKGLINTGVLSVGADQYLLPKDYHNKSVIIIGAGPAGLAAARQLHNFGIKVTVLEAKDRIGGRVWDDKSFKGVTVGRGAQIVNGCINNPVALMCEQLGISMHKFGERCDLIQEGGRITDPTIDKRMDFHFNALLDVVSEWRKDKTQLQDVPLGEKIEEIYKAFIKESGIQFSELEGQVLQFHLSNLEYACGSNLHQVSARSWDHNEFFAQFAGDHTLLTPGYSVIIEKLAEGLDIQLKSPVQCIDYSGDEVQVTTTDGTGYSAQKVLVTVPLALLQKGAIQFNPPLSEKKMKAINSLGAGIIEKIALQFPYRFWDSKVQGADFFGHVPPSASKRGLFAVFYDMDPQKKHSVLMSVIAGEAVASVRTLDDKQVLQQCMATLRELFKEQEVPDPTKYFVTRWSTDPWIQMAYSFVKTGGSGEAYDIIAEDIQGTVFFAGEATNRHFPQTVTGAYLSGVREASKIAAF
Conditions: Table 1; read-out: Select KDM1b; cited from earlier work.

In data set [8] the target is LSD1 (Homo sapiens, UniProt O60341). Conditions: literature cell potency, LSD1 inhibitors; cited from earlier work.
For data set [9] the following is noted: cited from earlier work.
The test system of data set [10] is MAO. Conditions: cited from earlier work.
The test system of data set [11] is KDM4. The conditions noted are these: Table 9; read-out: Select KDM4; cited from earlier work.
Data set [12] concerns KDM6. Conditions: Table 9; read-out: Select KDM6; cited from earlier work.
Data set [13] has as its system KDM. The conditions noted are these: literature cell potency, KDM inhibitors; cited from earlier work.
Data set [14] has as its target DOT1L (Homo sapiens, UniProt Q8TEK3). The conditions noted are these: literature cell potency, DOT1L inhibitors; cited from earlier work.

Sequence of DOT1L (Q8TEK3 whole entry, species assumed): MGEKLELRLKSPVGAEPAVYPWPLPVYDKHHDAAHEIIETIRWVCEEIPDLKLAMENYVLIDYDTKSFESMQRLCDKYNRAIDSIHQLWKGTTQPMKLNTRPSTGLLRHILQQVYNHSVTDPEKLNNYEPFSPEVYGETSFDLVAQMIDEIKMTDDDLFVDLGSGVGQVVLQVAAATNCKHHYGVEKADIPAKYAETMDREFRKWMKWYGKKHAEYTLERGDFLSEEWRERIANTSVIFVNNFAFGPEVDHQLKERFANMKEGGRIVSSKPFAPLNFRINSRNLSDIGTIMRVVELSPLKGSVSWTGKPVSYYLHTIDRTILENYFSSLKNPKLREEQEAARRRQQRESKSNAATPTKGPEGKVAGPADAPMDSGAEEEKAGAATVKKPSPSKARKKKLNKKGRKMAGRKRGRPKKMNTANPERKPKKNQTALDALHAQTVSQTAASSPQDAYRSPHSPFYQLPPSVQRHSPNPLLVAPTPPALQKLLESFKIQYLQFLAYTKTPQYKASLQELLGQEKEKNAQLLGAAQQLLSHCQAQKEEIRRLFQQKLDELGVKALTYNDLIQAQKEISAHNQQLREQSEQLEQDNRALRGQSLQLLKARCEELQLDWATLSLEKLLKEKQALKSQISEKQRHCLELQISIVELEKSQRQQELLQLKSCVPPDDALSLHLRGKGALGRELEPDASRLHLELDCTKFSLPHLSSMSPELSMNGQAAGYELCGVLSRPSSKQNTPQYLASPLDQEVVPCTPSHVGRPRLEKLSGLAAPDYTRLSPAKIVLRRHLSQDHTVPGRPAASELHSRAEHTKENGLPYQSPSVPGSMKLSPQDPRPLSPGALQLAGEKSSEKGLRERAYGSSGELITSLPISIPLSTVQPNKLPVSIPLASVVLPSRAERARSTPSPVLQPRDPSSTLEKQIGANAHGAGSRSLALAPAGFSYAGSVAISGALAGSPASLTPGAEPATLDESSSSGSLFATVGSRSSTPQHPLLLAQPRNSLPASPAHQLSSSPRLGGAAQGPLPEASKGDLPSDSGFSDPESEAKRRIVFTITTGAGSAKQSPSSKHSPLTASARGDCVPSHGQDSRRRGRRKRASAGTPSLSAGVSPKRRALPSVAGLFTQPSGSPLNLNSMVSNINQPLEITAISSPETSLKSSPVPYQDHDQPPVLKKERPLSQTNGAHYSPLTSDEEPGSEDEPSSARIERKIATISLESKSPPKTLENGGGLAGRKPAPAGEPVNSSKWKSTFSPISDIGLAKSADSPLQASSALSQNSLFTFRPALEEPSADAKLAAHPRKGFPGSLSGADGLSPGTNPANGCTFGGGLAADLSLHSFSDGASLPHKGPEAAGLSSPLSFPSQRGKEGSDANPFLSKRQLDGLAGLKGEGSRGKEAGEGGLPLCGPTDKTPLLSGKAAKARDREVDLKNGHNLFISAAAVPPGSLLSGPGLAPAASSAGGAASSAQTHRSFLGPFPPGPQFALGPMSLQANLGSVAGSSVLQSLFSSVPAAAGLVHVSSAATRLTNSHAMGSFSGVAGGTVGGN

On to `CN1CCN(C(=O)CN[C@@H]2C[C@H]2c2ccc(OCc3ccccc3)cc2)CC1` [Compound 1], for which the figures for the IC50 in [1], in [2] and in data set [3] were 0.22 µM, 0.19 µM and 0.22 µM, respectively.

In the case of `Cc1ccc(C(=O)Nc2c[nH]nc2C(=O)NCCCOC(C)C)cn1` [GSK XX1I], the “Lgr5+ Assay” value in [4] (Wnt agonists (GSK3 inhibitors)) was 0.2 to 1 µM. The IC50 in data set [5] is 0.0023 µM.

Turning to `N[C@H]1CC[C@H](N[C@@H]2C[C@H]2c2ccccc2)CC1` [ORY-1001], the “Lgr5 GFP(+) cell area” value in data set [4] (FIG. 6A: 0-30 μM ORY-1001 alone in EFI vs EFI-C, EFI-CV) is listed as “does not proliferate”; in data set [4] (FIG. 7A: 41 nM ORY-1001 + 4 uM CHIR99021 + 1 mM VPA in EFI vs CHIR+VPA), “further enhances Lgr5 GFP+ progenitor cell proliferation”. Besides, the “Lgr5 GFP(+) cell area percentage” value in data set [4] (FIG. 6B: 0-30 μM ORY-1001 alone in EFI vs EFI-C, EFI-CV) is “does not enrich”. For the same molecule, the “enrichment of Lgr5 GFP+ cells (y-axis: Lgr5 GFP(+) cell area)” value in data set [4] (FIG. 7B: 41 nM ORY-1001 + 4 uM CHIR99021 + 1 mM VPA in EFI vs CHIR+VPA) is “further enhances enrichment”. Besides, the “Lgr5+ progenitor cell proliferation and enrichment” value in data set [6] (inhibitor 41 nM with CHIR99021 (4 μM) and VPA (1 mM)) is “enhanced Lgr5+ progenitor cell proliferation and enrichment”. In addition, the “proliferation or enrichment of cochlear progenitor cells” value in data set [6] (inhibitor alone) was “does not promote the proliferation or enrichment”. The IC50 in data set [7] is greater than 100 µM. Also, the “Literat. Cell” value in data set [8] was 0.5 to 3 nM. In addition, the “Human Plasma Conc.” value in data set [9] (human plasma, LSD1 inhibitors) is 1 to 100 nM.

Regarding `NNCCc1ccccc1` [Phenelzine sulfate], in [8], the “Literat. Cell” value is reported as 900 nM. Moreover, in [9] (human plasma Cmax, read-out: Human Plasma Conc. Cmax (molar, in brackets)), the Cmax (as a rule, the peak of the concentration-time curve) was 73 to 440 nM. Also, the “MAO inhib in Cell” value in data set [10] is given as 900 nM.

Consider `O=C(O)CCN(O)C(=O)CCCCCCCCC1CC1` [TC-E 5002], for which the “Lgr5 GFP(+) cell count” value in [4] (FIG. 36A: 0.37 μM TC-E 5002 + 3 μM CHIR99021 + 1 mM VPA in EFI vs EFI-C, EFI-CV) is listed as “enhances Lgr5 GFP+ progenitor cell proliferation”. Besides, in data set [4] (KDM inhibitors), the “Lgr5+ Assay” value is 0.12 to 10 µM. Moreover, in data set [9] (KDM inhibitors), the “Human In Vivo Conc” value was 0.12 to 10 µM. In addition, the IC50 in data set [11] is 83 µM; in data set [2] it was 55 µM; in data set [12], greater than 100 µM; in data set [3], 0.2 µM. In addition, the “Lit Cell” value in data set [13] was 16 to 40 µM.

Turning to `CC(C)N(C[C@H]1O[C@@H](n2cnc3c(N)ncnc32)[C@H](O)[C@@H]1O)[C@H]1C[C@@H](CCc2nc3cc(C(C)(C)C)ccc3[nH]2)C1` [pinometostat], in data set [9] (DOT1L inhibitors), the “Human In Vivo Conc” value is given as “(1-10 uM) μM”. Also, in [9] (total plasma Css), the “Human In Vivo Conc: Total plasma Css” value is 800 to 1600 ng/mL and the “Human In Vivo Conc: Total plasma Css (molar, in brackets)” value is reported as “(1.42-2.94 uM)”. Also, the “Lit Cell” value in [14] is listed as 2.7 nM.
